The CheMixHub viscosity set
± gives the uncertainty stated by the source.

Test: xn = mol fraction of the nth substance listed

CCCCCCCCCCCC + C1CCCCC1
Conditions	viscosity [mPa·s]
297.78 K, 101.3 kPa, x1 = 0.4996	1.131 ± 0.014
298.13 K, 101.3 kPa, x1 = 0.7489	1.247 ± 0.016
298.15 K, 100 kPa, x2 = 0.2	1.263 ± 0.051
298.15 K, 100 kPa, x2 = 0.4	1.171 ± 0.047
298.15 K, 100 kPa, x2 = 0.6	1.071 ± 0.043
298.15 K, 100 kPa, x2 = 0.8	0.979 ± 0.039
298.15 K, 101.33 kPa, x1 = 0.0169	0.9114 ± 0.0077
298.15 K, 101.33 kPa, x2 = 0.1549	1.299 ± 0.011
298.15 K, 101.33 kPa, x2 = 0.2886	1.237 ± 0.01
298.15 K, 101.33 kPa, x2 = 0.3945	1.187 ± 0.0097
298.15 K, 101.33 kPa, x2 = 0.5031	1.138 ± 0.0094
298.15 K, 101.33 kPa, x2 = 0.5879	1.098 ± 0.0091
298.15 K, 101.33 kPa, x2 = 0.6636	1.048 ± 0.0087
298.15 K, 101.33 kPa, x2 = 0.7601	1.011 ± 0.0084
298.15 K, 101.33 kPa, x2 = 0.7983	0.9774 ± 0.0082
298.15 K, 101.33 kPa, x2 = 0.8536	0.9573 ± 0.008
298.15 K, 101.33 kPa, x2 = 0.8943	0.9433 ± 0.0079
298.15 K, 101.33 kPa, x2 = 0.941	0.9223 ± 0.0078
298.31 K, 101.3 kPa, x1 = 0.5001	1.121 ± 0.014
298.35 K, 101.3 kPa, x1 = 0.5001	1.116 ± 0.014
298.38 K, 101.3 kPa, x1 = 0.2501	0.9923 ± 0.017
298.43 K, 101.3 kPa, x1 = 0.2501	0.9883 ± 0.017
298.43 K, 101.3 kPa, x1 = 0.4996	1.114 ± 0.014
298.61 K, 101.3 kPa, x1 = 0.7489	1.232 ± 0.015
298.62 K, 101.3 kPa, x1 = 0.7489	1.232 ± 0.015
308.76 K, 101.3 kPa, x1 = 0.5001	0.9475 ± 0.011
308.86 K, 101.3 kPa, x1 = 0.5001	0.948 ± 0.011
323.15 K, 100 kPa, x2 = 0.2	0.8615 ± 0.035
323.15 K, 100 kPa, x2 = 0.4	0.8075 ± 0.032
323.15 K, 100 kPa, x2 = 0.6	0.7427 ± 0.03
323.15 K, 100 kPa, x2 = 0.8	0.6736 ± 0.027

CCCCCCCCCCO + C1CCCCC1
Conditions	viscosity [mPa·s]
293.15 K, 100 kPa, x2 = 0.0822	12.17 ± 0.98
293.15 K, 100 kPa, x2 = 0.1602	10.37 ± 0.83
293.15 K, 100 kPa, x2 = 0.2397	8.74 ± 0.7
293.15 K, 100 kPa, x2 = 0.3476	6.8 ± 0.55
293.15 K, 100 kPa, x2 = 0.4402	5.45 ± 0.44
293.15 K, 100 kPa, x2 = 0.5604	3.92 ± 0.32
293.15 K, 100 kPa, x2 = 0.6506	2.95 ± 0.24
293.15 K, 100 kPa, x2 = 0.7397	2.18 ± 0.18
293.15 K, 100 kPa, x2 = 0.8508	1.48 ± 0.12
293.15 K, 100 kPa, x2 = 0.94	1.1 ± 0.09
303.15 K, 100 kPa, x2 = 0.0822	8.4 ± 0.67
303.15 K, 100 kPa, x2 = 0.1602	7.28 ± 0.58
303.15 K, 100 kPa, x2 = 0.2397	6.22 ± 0.5
303.15 K, 100 kPa, x2 = 0.3476	4.96 ± 0.4
303.15 K, 100 kPa, x2 = 0.4402	4.02 ± 0.32
303.15 K, 100 kPa, x2 = 0.5604	2.97 ± 0.24
303.15 K, 100 kPa, x2 = 0.6506	2.31 ± 0.19
303.15 K, 100 kPa, x2 = 0.7397	1.77 ± 0.14
303.15 K, 100 kPa, x2 = 0.8508	1.29 ± 0.1
303.15 K, 100 kPa, x2 = 0.94	0.98 ± 0.08
303.15 K, 101.33 kPa, x1 = 0.1009	1.08 ± 0.013
303.15 K, 101.33 kPa, x1 = 0.1983	1.404 ± 0.017
303.15 K, 101.33 kPa, x1 = 0.2985	1.829 ± 0.021
303.15 K, 101.33 kPa, x1 = 0.3954	2.357 ± 0.027
303.15 K, 101.33 kPa, x1 = 0.5	3.076 ± 0.035
303.15 K, 101.33 kPa, x1 = 0.5845	3.781 ± 0.043
303.15 K, 101.33 kPa, x1 = 0.6939	4.863 ± 0.054
303.15 K, 101.33 kPa, x1 = 0.7949	6.023 ± 0.064
303.15 K, 101.33 kPa, x1 = 0.8949	7.33 ± 0.076
308 K, 101 kPa, x2 = 0.0801	6.912 ± 0.049
308 K, 101 kPa, x2 = 0.2421	5.397 ± 0.04
308 K, 101 kPa, x2 = 0.3455	4.468 ± 0.033
308 K, 101 kPa, x2 = 0.4703	3.396 ± 0.025
308 K, 101 kPa, x2 = 0.5762	2.579 ± 0.019
308 K, 101 kPa, x2 = 0.6347	2.14 ± 0.016
308 K, 101 kPa, x2 = 0.7203	1.702 ± 0.013
308 K, 101 kPa, x2 = 0.8752	1.061 ± 0.0084
308 K, 101 kPa, x2 = 0.9408	0.86 ± 0.0069
313.15 K, 100 kPa, x2 = 0.0822	5.95 ± 0.48
313.15 K, 100 kPa, x2 = 0.1602	5.22 ± 0.42
313.15 K, 100 kPa, x2 = 0.2397	4.53 ± 0.36
313.15 K, 100 kPa, x2 = 0.3476	3.69 ± 0.3
313.15 K, 100 kPa, x2 = 0.4402	3.04 ± 0.24
313.15 K, 100 kPa, x2 = 0.5604	2.29 ± 0.18
313.15 K, 100 kPa, x2 = 0.6506	1.82 ± 0.15
313.15 K, 100 kPa, x2 = 0.7397	1.43 ± 0.12
313.15 K, 100 kPa, x2 = 0.8508	1.05 ± 0.08
313.15 K, 100 kPa, x2 = 0.94	0.81 ± 0.07
323.15 K, 100 kPa, x2 = 0.0822	4.35 ± 0.35
323.15 K, 100 kPa, x2 = 0.1602	3.85 ± 0.31
323.15 K, 100 kPa, x2 = 0.2397	3.36 ± 0.27
323.15 K, 100 kPa, x2 = 0.3476	2.78 ± 0.22
323.15 K, 100 kPa, x2 = 0.4402	2.35 ± 0.19
323.15 K, 100 kPa, x2 = 0.5604	1.84 ± 0.15
323.15 K, 100 kPa, x2 = 0.6506	1.51 ± 0.12
323.15 K, 100 kPa, x2 = 0.7397	1.22 ± 0.1
323.15 K, 100 kPa, x2 = 0.8508	0.91 ± 0.07
323.15 K, 100 kPa, x2 = 0.94	0.71 ± 0.06
